These results are taken from patent publication US20260232682A1, “GSPT1 DEGRADER COMPOUNDS” (Captor Therapeutics S.A., priority 2023, published 2026).

Where only a bound is given, the exact number is not on record here.

Assay [1] deals with T1, [SALL4 ZF2]-[compound]-[CRBN/DDB1] ternary complex (Homo sapiens, UniProt Q96SW2+Q9UJQ4).
T1 construct: SALL4 ZF2
The assay is described as follows: AlphaLISA assay for off-target recruitment detection, SALL4 ZF2. To be noted: 1 μM compound; normalized to Lenalidomide; read-out: Normalized ternary complex response, SALL4 ZF2. It counts as binding. In short, it runs like this: (§1)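 Neo-substrate with 40 μg/ml donor beads and 200 nM 6×His-CRBN/DDB1 with 40 μg/ml anti-His acceptor beads were each prepared in PBS pH 7.4 with Tween-20 and 1 mM DTT, preincubated 30 min at RT, then mixed. Compounds at 2% DMSO were incubated 30 min at 25 °C, read at 680/615 nm, and normalised between DMSO background and reference glue maximum.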
In general terms: Alpha assays give light when donor and acceptor beads are brought close together.

In assay [2] the target is T2, [IKZF1 ZF2]-[compound]-[CRBN/DDB1] ternary complex (Homo sapiens, UniProt Q13422+Q96SW2).
T2 construct: IKZF1 ZF2
T2 sequence (Q13422 145-167 limits assumed): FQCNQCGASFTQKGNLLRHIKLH
T2 sequence (Q96SW2 whole entry): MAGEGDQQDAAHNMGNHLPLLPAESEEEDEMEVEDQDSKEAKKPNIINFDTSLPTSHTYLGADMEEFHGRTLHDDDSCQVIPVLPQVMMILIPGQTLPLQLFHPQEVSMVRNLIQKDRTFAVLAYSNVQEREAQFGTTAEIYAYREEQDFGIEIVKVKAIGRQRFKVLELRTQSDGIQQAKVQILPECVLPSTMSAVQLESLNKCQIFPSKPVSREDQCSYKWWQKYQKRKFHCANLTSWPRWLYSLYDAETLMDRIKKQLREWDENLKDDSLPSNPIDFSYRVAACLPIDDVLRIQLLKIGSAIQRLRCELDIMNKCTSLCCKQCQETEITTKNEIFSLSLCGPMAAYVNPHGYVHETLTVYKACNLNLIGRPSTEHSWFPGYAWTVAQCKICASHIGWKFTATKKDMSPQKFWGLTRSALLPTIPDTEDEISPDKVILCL
T2 sequence (Q16531 whole entry partner): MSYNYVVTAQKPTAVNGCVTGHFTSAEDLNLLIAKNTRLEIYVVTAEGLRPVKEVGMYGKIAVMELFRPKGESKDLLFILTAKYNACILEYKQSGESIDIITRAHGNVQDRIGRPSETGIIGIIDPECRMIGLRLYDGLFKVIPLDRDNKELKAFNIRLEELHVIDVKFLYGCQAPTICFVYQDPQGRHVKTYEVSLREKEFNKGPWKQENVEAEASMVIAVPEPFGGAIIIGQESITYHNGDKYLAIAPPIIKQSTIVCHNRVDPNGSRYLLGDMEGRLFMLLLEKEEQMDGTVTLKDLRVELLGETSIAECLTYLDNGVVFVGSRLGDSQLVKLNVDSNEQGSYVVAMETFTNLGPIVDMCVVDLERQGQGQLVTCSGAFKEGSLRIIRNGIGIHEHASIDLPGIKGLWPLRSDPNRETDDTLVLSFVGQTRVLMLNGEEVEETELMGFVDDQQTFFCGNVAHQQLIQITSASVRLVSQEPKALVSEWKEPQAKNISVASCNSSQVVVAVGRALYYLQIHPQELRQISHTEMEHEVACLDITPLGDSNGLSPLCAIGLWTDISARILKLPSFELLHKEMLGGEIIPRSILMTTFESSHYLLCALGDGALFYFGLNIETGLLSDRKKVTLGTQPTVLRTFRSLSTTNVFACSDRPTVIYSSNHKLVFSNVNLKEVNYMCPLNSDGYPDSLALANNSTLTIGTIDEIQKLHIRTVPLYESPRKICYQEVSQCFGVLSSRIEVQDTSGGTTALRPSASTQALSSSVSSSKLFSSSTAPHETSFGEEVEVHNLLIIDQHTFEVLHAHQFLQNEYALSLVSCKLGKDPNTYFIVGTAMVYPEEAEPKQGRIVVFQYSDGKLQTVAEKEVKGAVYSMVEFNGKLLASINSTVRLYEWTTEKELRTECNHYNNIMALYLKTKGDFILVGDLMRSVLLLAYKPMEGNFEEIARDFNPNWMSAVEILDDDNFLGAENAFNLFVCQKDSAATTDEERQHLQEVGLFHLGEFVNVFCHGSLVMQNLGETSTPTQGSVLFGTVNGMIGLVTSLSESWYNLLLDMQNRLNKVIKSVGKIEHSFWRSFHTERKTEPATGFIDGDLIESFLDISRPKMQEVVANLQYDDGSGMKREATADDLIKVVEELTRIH
The assay is described as follows: AlphaLISA assay for off-target recruitment detection, IKZF1 ZF2. It counts as binding. To be noted: 1 μM compound; normalized to Lenalidomide; read-out: Normalized ternary complex response, IKZF1 ZF2. The method, boiled down:
as §1

Assay [3] deals with T3, [IKZF2 ZF2]-[compound]-[CRBN/DDB1] ternary complex (Homo sapiens, UniProt Q96SW2+Q9UKS7).
T3 construct: IKZF2 ZF2
T3 sequence (Q9UKS7 140-162 limits assumed): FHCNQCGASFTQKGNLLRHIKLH
T3 sequence (Q96SW2 whole entry): as the sequence (Q96SW2 whole entry) above
T3 sequence (Q16531 whole entry partner): as the sequence (Q16531 whole entry partner) above
Put plainly: AlphaLISA assay for off-target recruitment detection, IKZF2 ZF2. To be noted: 1 μM compound; normalized to Helios modulator; read-out: Normalized ternary complex response, IKZF2 ZF2. It counts as binding. The method, boiled down: as §1

For assay [4], the target named is [CK1α]-[compound]-[CRBN/DDB1] ternary complex (Homo sapiens, UniProt P48729+Q96SW2). The assay is described as follows: AlphaLISA assay for off-target recruitment detection, CK1α. It counts as binding. The settings on record: 1 μM compound; normalized to FPFT-2216; read-out: Normalized ternary complex response, CK1α. The method, boiled down: as §1
Sequence of [CK1α]-[compound]-[CRBN/DDB1] ternary complex (P48729 whole entry): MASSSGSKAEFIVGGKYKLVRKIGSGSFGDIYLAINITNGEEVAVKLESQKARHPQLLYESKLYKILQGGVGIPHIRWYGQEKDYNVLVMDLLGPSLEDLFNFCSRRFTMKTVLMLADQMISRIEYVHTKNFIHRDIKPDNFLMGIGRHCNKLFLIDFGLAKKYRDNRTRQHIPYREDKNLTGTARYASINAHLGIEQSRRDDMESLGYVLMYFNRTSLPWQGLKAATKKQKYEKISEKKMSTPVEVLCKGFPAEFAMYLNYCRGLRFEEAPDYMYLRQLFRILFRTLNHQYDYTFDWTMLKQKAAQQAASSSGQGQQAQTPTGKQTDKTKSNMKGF
Sequence of [CK1α]-[compound]-[CRBN/DDB1] ternary complex (Q96SW2 whole entry): as the sequence (Q96SW2 whole entry) above
Sequence of [CK1α]-[compound]-[CRBN/DDB1] ternary complex (Q16531 whole entry partner): as the sequence (Q16531 whole entry partner) above
The subject of another assay is GSPT1-HiBiT HEK293 cells. Put plainly: Cell Viability-CTG assay accompanying the Nano-Glo HiBiT assay. It counts as cell-based. To be noted: 6 hours treatment, viability of GSPT1-HiBiT HEK293 cells. As for the experimental part:
In parallel, the Cell Viability-CTG assay was performed to ensure that the potential decrease of the luminescent signal observed in the Nano-Glo HiBiT assay is a result of protein degradation and not a result of decreasing cell viability. For CTG assay accompanying the Nano-Glo HiBiT assay, cells were cultured, seeded and treated as described above. After 6 hours of incubation (37° C., 5% CO2), plates were removed from the incubator and let to equilibrate to RT. Luminescent signal detection was conducted using the CellTiter-Glo Lumiescent Cell Viability Assay (Promega, cat. nr G7573). 10 μL of the Cell Titer Glo reagent was added per well, plates were shaken to facilitate lysis (460 rpm, 4 min, RT) and incubated in the dark for the following 8 min. Luminescence was read using the CLARIOstar multimode plate reader (BMG LABTECH). The raw data (the relative luminescence unit values, RLU) were uploaded under the relevant protocol and analysed in CDDVault data management platform, in a manner similar to the description above. The Mean Minimum values were calculated in CDDVault using non-linear regression and appropriate equations.
A general note: With HiBiT, luminescence reflects the tagged protein that the partner subunit can reach.

T1 sequence (Q9UJQ4 410-432 limits assumed): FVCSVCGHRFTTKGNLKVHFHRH
T1 sequence (Q96SW2 whole entry): as the sequence (Q96SW2 whole entry) above
T1 sequence (Q16531 whole entry partner): as the sequence (Q16531 whole entry partner) above

`Cc1ccc(NC(=O)OCc2ccc3nc(C)c(N4CCC(=O)NC4=O)cc3c2)cc1Cl` [Compound 29, (3-(2,4-dioxotetrahydropyrimidin-1(2H)-yl)-2-methylquinolin-6-yl)methyl (3-chloro-4-methylphenyl)carbamate]: the activation at 1 µM in assay [1] is 25 to 50%; in assay [2], 10 to 25%; in assay [3] it was less than 10%; in assay [4], less than 10%. The “CTG assay Mean minimum” value in the assay with GSPT1-HiBiT HEK293 cells is recorded as “++++ (++++≥75% of viability of the HiBiT-GSPT1 HEK293 cells)”.
For the molecule `Cc1nc2cc(COC(=O)Nc3ccc(N4CCOCC4)nc3)ccc2cc1C1CCC(=O)NC1=O` (stereo not drawn) [Compound 42, (3-(2,6-dioxopiperidin-3-yl)-2-methylquinolin-7-yl)methyl (6-morpholinopyridin-3-yl)carbamate], the activation at 1 µM in assay [1], in assay [2], in assay [3] and in assay [4] was less than 10% throughout. In addition, in the assay on GSPT1-HiBiT HEK293 cells, the “CTG assay Mean minimum” value was “++++ (++++≥75% of viability of the HiBiT-GSPT1 HEK293 cells)”.
For the molecule `Cc1nc2cc(COC(=O)Nc3cc(C(C)(C)C)no3)ccc2cc1N1CCC(=O)NC1=O` [Compound 72, (3-(2,4-dioxotetrahydropyrimidin-1(2H)-yl)-2-methylquinolin-7-yl)methyl (3-(tert-butyl)isoxazol-5-yl)carbamate], the activation at 1 µM in assay [1], in assay [2], in assay [3] and in assay [4] was less than 10% in each case. Also, the “CTG assay Mean minimum” value in the assay with GSPT1-HiBiT HEK293 cells is “++++ (++++≥75% of viability of the HiBiT-GSPT1 HEK293 cells)”.
For the molecule `Cc1nc2cc(COC(=O)Nc3cc(Cl)c(C)c(CN4CCOCC4)c3)ccc2cc1C1CCC(=O)NC1=O` (stereo not drawn) [Compound 17, (3-(2,6-dioxopiperidin-3-yl)-2-methylquinolin-7-yl)methyl (3-chloro-4-methyl-5-(morpholinomethyl)phenyl)carbamate], the activation at 1 µM in assay [1], in assay [2], in assay [3] and in assay [4] was less than 10% in each case. In addition, the “CTG assay Mean minimum” value with GSPT1-HiBiT HEK293 cells is “++++ (++++≥75% of viability of the HiBiT-GSPT1 HEK293 cells)”.
With `Cc1ccc(NC(=O)OCc2ccc3cc(C4CCC(=O)NC4=O)c(C)nc3c2F)cc1Cl` (stereo not drawn) [Compound 50, (3-(2,6-dioxopiperidin-3-yl)-8-fluoro-2-methylquinolin-7-yl)methyl (3-chloro-4-methylphenyl)carbamate], the activation at 1 µM in assay [1], in assay [2], in assay [3] and in assay [4] was less than 10% throughout. For the same molecule, in the assay with GSPT1-HiBiT HEK293 cells, the “CTG assay Mean minimum” value is on record as “++++ (++++≥75% of viability of the HiBiT-GSPT1 HEK293 cells)”.
For `Cc1ccc(NC(=O)NCc2ccc3nc(C)c(N4CCC(=O)NC4=O)cc3c2)cc1Cl` [Compound 51, 1-(3-chloro-4-methylphenyl)-3-((3-(2,4-dioxotetrahydropyrimidin-1(2H)-yl)-2-methylquinolin-6-yl)methyl)urea], the activation at 1 µM in assay [1] is not below 50%; in assay [2], 25 to 50%; in assay [3], 10 to 25%; in assay [4], less than 10%. In addition, in the assay on GSPT1-HiBiT HEK293 cells, the “CTG assay Mean minimum” value is “++++ (++++≥75% of viability of the HiBiT-GSPT1 HEK293 cells)”.
For the molecule `Cc1ccc(NC(=O)NCc2ccc3cc(N4CCC(=O)NC4=O)c(C)nc3c2)cc1Cl` [Compound 27, 1-(3-chloro-4-methylphenyl)-3-((3-(2,4-dioxotetrahydropyrimidin-1(2H)-yl)-2-methylquinolin-7-yl)methyl)urea], the activation at 1 µM in assay [1], in assay [2], in assay [3] and in assay [4] was less than 10% throughout. In addition, the “CTG assay Mean minimum” value in the assay on GSPT1-HiBiT HEK293 cells is reported as “++++ (++++≥75% of viability of the HiBiT-GSPT1 HEK293 cells)”.
Consider `Cc1nc2cc(COC(=O)Nc3ccc(Cl)c(Cl)c3)ccc2cc1C1CCC(=O)NC1=O` (stereo not drawn) [Compound 12, (3-(2,6-dioxopiperidin-3-yl)-2-methylquinolin-7-yl)methyl (3,4-dichlorophenyl)carbamate], for which the activation at 1 µM in assay [1], in assay [2], in assay [3] and in assay [4] was less than 10% in each case. The “CTG assay Mean minimum” value with GSPT1-HiBiT HEK293 cells is on record as “++++ (++++≥75% of viability of the HiBiT-GSPT1 HEK293 cells)”.
With `Cc1nc2cc(COC(=O)Nc3cc(C(C)(C)C)n[nH]3)ccc2cc1C1CCC(=O)NC1=O` (stereo not drawn) [Compound 75, (3-(2,6-dioxopiperidin-3-yl)-2-methylquinolin-7-yl)methyl (3-(tert-butyl)-1H-pyrazol-5-yl)carbamate], the activation at 1 µM in assay [1], in assay [2], in assay [3] and in assay [4] was less than 10% each time. Besides, the “CTG assay Mean minimum” value with GSPT1-HiBiT HEK293 cells is “++++ (++++≥75% of viability of the HiBiT-GSPT1 HEK293 cells)”.
Turning to `Cc1ccc(NC(=O)OCc2ccc3cc(C4CCC(=O)NC4=O)c(C)nc3c2)c(Cl)c1Cl` (stereo not drawn) [Compound 54, (3-(2,6-dioxopiperidin-3-yl)-2-methylquinolin-7-yl)methyl (2,3-dichloro-4-methylphenyl)carbamate], the activation at 1 µM in assay [1], in assay [2], in assay [3] and in assay [4] was less than 10% each time. Also, the “CTG assay Mean minimum” value in the assay with GSPT1-HiBiT HEK293 cells was “++++ (++++≥75% of viability of the HiBiT-GSPT1 HEK293 cells)”.
Consider `Cc1ncc(NC(=O)OCc2ccc3cc(C4CCC(=O)NC4=O)c(C)nc3c2)cc1Cl` (stereo not drawn) [Compound 58, (3-(2,6-dioxopiperidin-3-yl)-2-methylquinolin-7-yl)methyl (5-chloro-6-methylpyridin-3-yl)carbamate], for which the activation at 1 µM in assay [1], in assay [2], in assay [3] and in assay [4] was less than 10% each time. For the same molecule, the “CTG assay Mean minimum” value in the assay with GSPT1-HiBiT HEK293 cells was “++++ (++++≥75% of viability of the HiBiT-GSPT1 HEK293 cells)”.
On to `Cc1ccc(NC(=O)OCc2ccc3cc([C@H]4CCC(=O)NC4=O)c(C)nc3c2)cc1Cl` [Compound 39, (3-(2,6-dioxopiperidin-3-yl)-2-methylquinolin-7-yl)methyl (3-chloro-4-methylphenyl)carbamate], for which the activation at 1 µM in assay [1], in assay [2], in assay [3] and in assay [4] was less than 10% throughout. The “CTG assay Mean minimum” value with GSPT1-HiBiT HEK293 cells is on record as “++++ (++++≥75% of viability of the HiBiT-GSPT1 HEK293 cells)”.
`Cc1nc2cc(COC(=O)Nc3ccc(-c4ccccc4)nc3)ccc2cc1C1CCC(=O)NC1=O` (stereo not drawn) [Compound 20, (3-(2,6-dioxopiperidin-3-yl)-2-methylquinolin-7-yl)methyl (6-phenylpyridin-3-yl)carbamate]: the activation at 1 µM in assay [1], in assay [2], in assay [3] and in assay [4] was less than 10% in each case. For the same molecule, the “CTG assay Mean minimum” value with GSPT1-HiBiT HEK293 cells was “++++ (++++≥75% of viability of the HiBiT-GSPT1 HEK293 cells)”.
As for `Cc1nc2cc(COC(=O)Nc3cc(C(C)(C)C)no3)ccc2cc1C1CCC(=O)NC1=O` (stereo not drawn) [Compound 30, (3-(2,6-dioxopiperidin-3-yl)-2-methylquinolin-7-yl)methyl (3-(tert-butyl)isoxazol-5-yl)carbamate], the activation at 1 µM in assay [1], in assay [2], in assay [3] and in assay [4] was less than 10% in each case. In the assay with GSPT1-HiBiT HEK293 cells, the “CTG assay Mean minimum” value was “++++ (++++≥75% of viability of the HiBiT-GSPT1 HEK293 cells)”.
`Cc1ccc(NC(=O)OCc2ccc3c(C)c(C4CCC(=O)NC4=O)c(C)nc3c2)cc1Cl` (stereo not drawn) [Compound 44, (3-(2,6-dioxopiperidin-3-yl)-2,4-dimethylquinolin-7-yl)methyl (3-chloro-4-methylphenyl)carbamate]: the activation at 1 µM in assay [1], in assay [2], in assay [3] and in assay [4] was less than 10% each time. In addition, in the assay on GSPT1-HiBiT HEK293 cells, the “CTG assay Mean minimum” value was “++++ (++++≥75% of viability of the HiBiT-GSPT1 HEK293 cells)”.
